For 20 compounds, IC50 results are on record in BindingDB's records for doi:10.1111/cbdd.12443 (Northeastern University, 2015).

For orientation: IC50 means the concentration that gives 50% inhibition. The low end stands for inhibition by little substance, the high end for a need for much substance.

Counter-ions that a name gives are not always drawn.

This test has as its target T1, Phosphodiesterase (Trypanosoma brucei, UniProt Q8WQX9).
T1 sequence (Q8WQX9 whole entry): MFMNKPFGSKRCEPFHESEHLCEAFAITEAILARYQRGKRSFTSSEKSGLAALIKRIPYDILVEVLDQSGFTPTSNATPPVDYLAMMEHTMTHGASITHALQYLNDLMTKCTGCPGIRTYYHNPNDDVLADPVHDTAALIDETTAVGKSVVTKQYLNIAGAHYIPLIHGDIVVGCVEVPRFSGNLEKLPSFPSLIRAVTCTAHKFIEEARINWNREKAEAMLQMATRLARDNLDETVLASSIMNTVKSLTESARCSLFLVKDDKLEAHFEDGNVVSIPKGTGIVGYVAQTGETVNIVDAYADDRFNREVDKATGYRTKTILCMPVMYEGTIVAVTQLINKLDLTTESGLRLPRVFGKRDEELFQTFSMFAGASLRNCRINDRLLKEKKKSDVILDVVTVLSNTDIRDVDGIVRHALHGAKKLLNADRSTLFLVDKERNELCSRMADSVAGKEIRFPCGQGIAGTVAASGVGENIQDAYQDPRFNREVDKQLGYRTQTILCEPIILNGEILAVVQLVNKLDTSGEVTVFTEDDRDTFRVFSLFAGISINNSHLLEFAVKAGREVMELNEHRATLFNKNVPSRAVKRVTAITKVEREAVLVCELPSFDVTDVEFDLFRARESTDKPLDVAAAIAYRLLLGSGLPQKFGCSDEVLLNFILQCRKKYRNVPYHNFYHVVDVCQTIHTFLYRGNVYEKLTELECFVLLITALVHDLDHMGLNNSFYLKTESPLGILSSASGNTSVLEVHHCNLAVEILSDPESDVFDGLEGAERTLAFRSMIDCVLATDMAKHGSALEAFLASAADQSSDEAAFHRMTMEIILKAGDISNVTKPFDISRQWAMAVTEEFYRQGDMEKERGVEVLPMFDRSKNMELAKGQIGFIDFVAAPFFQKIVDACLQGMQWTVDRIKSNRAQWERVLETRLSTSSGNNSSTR
Put plainly: TbrPDEB1 Enzyme Assay. Particulars: pH 7.4. As for the experimental part:
In short, recombinant TbrPDEB1 and TbrPDEB2 were assayed in 10 mM Tris pH 7.4, bovine serum albumin (0.2 mg/mL), 10 mM MgCl2, 25µM cAMP (Enzo Lifesciences) and an excess of 5 endonucleotidase (>1000U) at 37 °C. Excess amount of 5 endonucleotidase was determined by titration (Enzo Lifesciences). Reactions were terminated by the addition of BioMol green (Enzo Lifesciences) which was also used to detect changes in the level of phosphate. This was measured by absorbance at 620 nm using a Tecan Sunrise plate reader. […] Inhibitors were preincubated with the assay mixture for 5 min prior to the addition of substrate. Inhibition was determined by the change in the initial velocity relative to a vehicle only control for both compound screening and for the determination of IC50 values. Initial velocity was determined by linear regression and IC50 values were calculated
`COc1cccc(Nc2c(C(N)=O)cnc3c(C)cc(S(=O)(=O)c4cccc(C(=O)O)c4)cc23)c1` [3-(3-carbamoyl-4-(3-methoxyphenylamino)-8-methylquinolin-6-ylsulfonyl)benzoic acid (11)] registered an IC50 of 2.9 µM.

Compound `CNC(=O)c1cccc(S(=O)(=O)c2cc(C)c3ncc(C(N)=O)c(Nc4cccc(OC)c4)c3c2)c1` [4-(3-methoxyphenylamino)-8-methyl-6-(3-(methylcarbamoyl)phenylsulfonyl)quinoline-3-carboxamide (12b)] yielded an IC50 of 31 µM.

For `COc1ccc(Nc2c(C(N)=O)cnc3c(C)cc(-c4ccc5cnn(C)c5c4)cc23)cc1C` [4-(4-Methoxy-3-methylphenylamino)-8-methyl-6-(1-methyl-1H-indazol-6-yl)quinoline-3-carboxamide, formic acid salt (24f)], 3.7 µM corresponded to half-maximal inhibition (IC50).

Consider `CCOc1cccc(Nc2c(C(N)=O)cnc3c(C)cc(-c4ccc5cnn(C)c5c4)cc23)c1` [4-((3-Ethoxyphenyl)amino)-8-methyl-6-(1-methyl-1H-indazol-6-yl)quinoline-3-carboxamide (24c)], for which it took 4.2 µM to reach half-maximal inhibition (IC50).

Turning to `COc1cccc(Nc2c(C(N)=O)cnc3ccc(-c4ccc5cnn(C)c5c4)cc23)c1` [4-((3-Methoxyphenyl)amino)-6-(1-methyl-1H-indazol-6-yl)quinoline-3-carboxamide (19b)], it took 12 µM to reach half-maximal inhibition (IC50).

In the case of `COc1cccc(Nc2c(C(N)=O)cnc3c(C)cc(-c4cn[nH]c4)cc23)c1` [4-((3-Methoxyphenyl)amino)-8-methyl-6-(1H-pyrazol-4-yl)quinoline-3-carboxamide  (17j)], the IC50 was 9 µM.

`COc1cccc(Nc2c(C(N)=O)cnc3c(C)cc(-c4cccc(-c5nnc(C)s5)c4)cc23)c1` [4-((3-Methoxyphenyl)amino)-8-methyl-6-(3-(5-methyl-1,3,4-thiadiazol-2-yl)phenyl) quinoline-3-carboxamide, formic acid salt (17o)] had an IC50 of 6 µM.

As for `COc1cccc(Nc2c(C(N)=O)cnc3c(C)cc(-c4cccc(-c5ncco5)c4)cc23)c1` [4-((3-Methoxyphenyl)amino)-8-methyl-6-(3-(oxazol-2-yl)phenyl)quinoline-3-carboxamide (17p)], the IC50 stood at 5.9 µM.

`COc1cccc(Nc2c(C(N)=O)cnc3c(C)cc(-c4cccc(N5CCOCC5)c4)cc23)c1` [4-((3-Methoxyphenyl)amino)-8-methyl-6-(3-morpholinophenyl)quinoline-3-carboxamide (17s)] registered an IC50 of 12 µM.

For the compound `Cc1cc(-c2cccc(-c3ncco3)c2)cc2c(NC3CCCC3)c(C(N)=O)cnc12` [4-(Cyclopentylamino)-8-methyl-6-(3-(oxazol-2-yl)phenyl)quinoline-3-carboxamide (28)], the IC50 turned out to be 5.9 µM.

The compound `COc1cccc(Nc2c(C(N)=O)cnc3c(C)cc(-c4ccc5[nH]ccc5c4)cc23)c1` [6-(1H-Indol-5-yl)-4-((3-methoxyphenyl)amino)-8-methylquinoline-3-carboxamide (17t)] returned an IC50 of 5.9 µM.

With `COc1cccc(Nc2c(C(N)=O)cnc3c(C)cc(-c4cccc(-c5nnn[nH]5)c4)cc23)c1` [6-(3-(1H-Tetrazol-5-yl)phenyl)-4-((3-methoxyphenyl)amino)-8-methylquinoline-3-carboxamide (17m)], 6.7 µM corresponded to half-maximal inhibition (IC50).

For `COc1cccc(Nc2c(C(N)=O)cnc3c(C)cc(-c4cccc(N)c4)cc23)c1` [6-(3-Aminophenyl)-4-((3-methoxyphenyl)amino)-8-methylquinoline-3-carboxamide (17f)], the IC50 was determined as 23 µM.

`CCc1cc(-c2ccc3cnn(C)c3c2)cc2c(Nc3cccc(OC)c3)c(C(N)=O)cnc12` [8-Ethyl-4-((3-methoxyphenyl)amino)-6-(1-methyl-1H-indazol-6-yl)quinoline-3-carboxamide (19c)] showed an IC50 of 3.7 µM.

In turn, `Cc1cccc(Nc2c(C(N)=O)cnc3c(C)cc(-c4ccc5cnn(C)c5c4)cc23)c1` [8-Methyl-6-(1-methyl-1H-indazol-6-yl)-4-(m-tolylamino)quinoline-3-carboxamide (24e)] had an IC50 of 3.5 µM.

`COc1cccc(Nc2c(C(N)=O)cnc3c(C)cc(S(=O)(=O)c4cccc(C(=O)N(C)C)c4)cc23)c1` [GSK-256066] had a half-maximal inhibitory concentration (IC50) of 24 µM.

In turn, `COC(=O)c1cccc(Nc2cc(C)c3ncc(C(N)=O)c(Nc4cccc(OC)c4)c3c2)c1` [Methyl 3-(3-carbamoyl-4-(3-methoxyphenylamino)-8-methylquinolin-6-ylamino)benzoate (13)] gave an IC50 of 16 µM.

For `COC(=O)c1cccc(S(=O)(=O)c2cc(C)c3ncc(C(N)=O)c(Nc4cccc(OC)c4)c3c2)c1` [Methyl 3-(3-carbamoyl-4-(3-methoxyphenylamino)-8-methylquinolin-6-ylsulfonyl)benzoate (10a)], the IC50 is 3.5 µM.

On to `COC(=O)c1cccc(-c2cc(C)c3ncc(C(N)=O)c(Nc4cccnc4)c3c2)c1` [Methyl 3-(3-carbamoyl-8-methyl-4-(pyridin-3-ylamino)quinolin-6-yl)benzoate (22f)], for which the 50% inhibitory concentration (IC50) came out at 26 µM.

For `COC(=O)c1cccc(-c2cc(C)c3ncc(C(N)=O)c(NCc4ccccc4)c3c2)c1` [Methyl 3-(4-(benzylamino)-3-carbamoyl-8-methylquinolin-6-yl)benzoate (22c)], the IC50 was determined as 28 µM.
